Measurements from ChEMBL document CHEMBL5108027, “An unanticipated discovery of novel naphthalimidopropanediols as potential broad-spectrum antibacterial members” (Eur J Med Chem, 2022).
Converted amounts (≈) assume the structure as drawn. The source made the active and inactive calls. The rule behind the calls is not given here.

Key:
Pseudomonas aeruginosa [1] = test: Antibacterial activity against Pseudomonas aeruginosa assessed as fold increase in MIC measured after 16 passages by resistance development assay; assay type: functional
Klebsiella pneumoniae = test: Antibacterial activity against Klebsiella pneumoniae measured by Muller-Hinton broth based microdilution assay; assay type: functional
Acinetobacter baumannii = test: Antibacterial activity against Acinetobacter baumannii measured by Muller-Hinton broth based microdilution assay; assay type: functional
Staphylococcus aureus [2] = test: Antibacterial activity against methicillin-resistant Staphylococcus aureus N315 measured by Muller-Hinton broth based microdilution assay; assay type: functional
Escherichia coli [3] = test: Antibacterial activity against Escherichia coli ATCC 25922 measured by Muller-Hinton broth based microdilution assay; assay type: functional
Staphylococcus aureus [4] = test: Antibacterial activity against Staphylococcus aureus ATCC 29213 measured by Muller-Hinton broth based microdilution assay; assay type: functional
Pseudomonas aeruginosa [5] = test: Antibacterial activity against Pseudomonas aeruginosa measured by Muller-Hinton broth based microdilution assay; assay type: functional
Staphylococcus aureus [6] = test: Antibacterial activity against Staphylococcus aureus assessed as fold increase in MIC measured after 16 passages by resistance development assay; assay type: functional
Staphylococcus aureus [7] = test: Antibacterial activity against Staphylococcus aureus ATCC 25923 measured by Muller-Hinton broth based microdilution assay; assay type: functional
Staphylococcus aureus [8] = test: Antibacterial activity against Staphylococcus aureus measured by Muller-Hinton broth based microdilution assay; assay type: functional
Pseudomonas aeruginosa [9] = test: Antibacterial activity against Pseudomonas aeruginosa ATCC 27853 measured by Muller-Hinton broth based microdilution assay; assay type: functional
Escherichia coli [10] = test: Antibacterial activity against Escherichia coli measured by Muller-Hinton broth based microdilution assay; assay type: functional
Enterococcus faecalis = test: Antibacterial activity against Enterococcus faecalis measured by Muller-Hinton broth based microdilution assay; assay type: functional
Pseudomonas aeruginosa [11] = test: Disruption of membrane integrity in Pseudomonas aeruginosa assessed as increase in nucleic acid leakage by measuring increase in absorbance 1 to 8 times MIC measured for 6 hrs by spectrophotometry; assay type: functional, organism-based
Pseudomonas aeruginosa [12] = test: Antibiofilm activity in Pseudomonas aeruginosa at 1 to 8 times MIC measured by Alamar blue assay; assay type: functional, organism-based
Pseudomonas aeruginosa [13] = test: Inhibition of bacterial growth of Pseudomonas aeruginosa at 1 to 2 times MIC; assay type: functional
Pseudomonas aeruginosa [14] = test: Induction of oxidative stress in Pseudomonas aeruginosa assessed as increase in intracellular ROS level at 1 to 8 times MIC measured after 6 hrs by DCFH-DA staining method; assay type: functional, organism-based
Pseudomonas aeruginosa [15] = test: Bactericidal activity against Pseudomonas aeruginosa assessed as reduction in number of colonies at 0.5 to 2 times MIC measured within 6 hrs by time-kill assay; assay type: functional, organism-based
Pseudomonas aeruginosa [16] = test: Antibacterial activity against Pseudomonas aeruginosa assessed as reduction in LDH activity at 1 to 8 times MIC measured after 6 hrs by microplate reader method; assay type: functional; set-up: scale not given: the % may be the effect or the level left
Pseudomonas aeruginosa [17] = test: Induction of membrane depolarization in Pseudomonas aeruginosa at 0.5 to 2 times MIC measured upto 1 hr by DiSC35 dye-based fluorescence assay; assay type: functional, organism-based
Pseudomonas aeruginosa [18] = test: Induction of inner membrane permeabilization in Pseudomonas aeruginosa by measuring increase in fluorescence intensity at 1 to 8 times MIC by calcein-AM/PI staining based fluorescence analysis; assay type: functional, organism-based
Pseudomonas aeruginosa [19] = test: Antibacterial activity against Pseudomonas aeruginosa measured after 16 passages by resistance development assay; assay type: functional, organism-based
Pseudomonas aeruginosa [20] = test: Inhibition of biofilm formation in Pseudomonas aeruginosa at 1 to 8 times MIC measured after 24 hrs by crystal violet staining method; assay type: functional, organism-based
L929 = test: Cytotoxicity against mouse L929 cells assessed as effect on cell growth at 0.25 to 0.5 ug/ml incubated for 24 hrs by MTT assay; assay type: toxicity, cell-based; details: l929, 24 h, dose 0.25-0.5 µg/ml
[21] = Selectivity ratio of HC50 for hemolytic activity in human RBC to MIC for antibacterial activity against Pseudomonas aeruginosa; assay type: toxicity; details: human red blood cells (erythrocytes)
Pseudomonas aeruginosa [22] = test: Antibacterial activity against Pseudomonas aeruginosa assessed as reduction in metabolic activity at 1 to 8 times MIC measured after 6 hrs by Alamar blue assay; assay type: functional, organism-based
[23] = Hemolytic activity in human RBC measured after 1 hr; assay type: toxicity, cell-based, Erythrocyte; details: human red blood cells (erythrocytes)
Pseudomonas aeruginosa [24] = test: Induction of oxidative stress in Pseudomonas aeruginosa assessed as decrease in GSH activity at 1 to 8 times MIC measured after 6 hrs by Ellman's assay; assay type: functional, organism-based
Pseudomonas aeruginosa [25] = test: Disruption of membrane integrity in Pseudomonas aeruginosa at 8 times MIC by calcein-AM/PI staining based fluorescence analysis; assay type: functional, organism-based
[26] = Hemolytic activity in human RBC assessed as hemolytic rate at 2 to 512 ug/ml and measured after 1 hr; assay type: toxicity, cell-based, Erythrocyte; details: human red blood cells (erythrocytes), at 2 to 512 µg/mL, dose 2-512 µg/ml, read-out: Activity
Pseudomonas aeruginosa [27] = test: Disruption of membrane integrity in Pseudomonas aeruginosa assessed as increase in protein leakage by measuring increase in absorbance 1 to 8 times MIC measured for 6 hrs by Bradford assay; assay type: functional, organism-based
Pseudomonas aeruginosa [28] = test: Induction of outer membrane permeabilization in Pseudomonas aeruginosa preincubated for 30 mins at 1 to 8 times MIC measured by NPN fluorescent dye based assay; assay type: functional, organism-based
Staphylococcus aureus [29] = test: Inhibition of biofilm formation in Staphylococcus aureus at 1 to 8 times MIC measured after 24 hrs by crystal violet staining method; assay type: functional, organism-based
Staphylococcus aureus [30] = test: Disruption of membrane integrity in Staphylococcus aureus at 8 times MIC by calcein-AM/PI staining based fluorescence analysis; assay type: functional, organism-based
Staphylococcus aureus [31] = test: Antibiofilm activity in Staphylococcus aureus at 1 to 8 times MIC measured by Alamar blue assay; assay type: functional, organism-based
Staphylococcus aureus [32] = test: Induction of oxidative stress in Staphylococcus aureus assessed as increase in intracellular ROS level at 1 to 8 times MIC measured after 6 hrs by DCFH-DA staining method; assay type: functional, organism-based
Staphylococcus aureus [33] = test: Disruption of membrane integrity in Staphylococcus aureus assessed as increase in nucleic acid leakage by measuring increase in absorbance 1 to 8 times MIC measured for 6 hrs by spectrophotometry; assay type: functional, organism-based
Staphylococcus aureus [34] = test: Induction of inner membrane permeabilization in Staphylococcus aureus by measuring increase in fluorescence intensity at 1 to 8 times MIC by calcein-AM/PI staining based fluorescence analysis; assay type: functional, organism-based
Staphylococcus aureus [35] = test: Inhibition of bacterial growth of Staphylococcus aureus at 1 to 2 times MIC; assay type: functional
[36] = Selectivity ratio of HC50 for hemolytic activity in human RBC to MIC for antibacterial activity against Staphylococcus aureus; assay type: toxicity; details: human red blood cells (erythrocytes)
Staphylococcus aureus [37] = test: Induction of membrane depolarization in Staphylococcus aureus at 0.5 to 2 times MIC measured upto 1 hr by DiSC35 dye-based fluorescence assay; assay type: functional, organism-based
Staphylococcus aureus [38] = test: Induction of oxidative stress in Staphylococcus aureus assessed as decrease in GSH activity at 1 to 8 times MIC measured after 6 hrs by Ellman's assay; assay type: functional, organism-based
Staphylococcus aureus [39] = test: Antibacterial activity against Staphylococcus aureus assessed as reduction in metabolic activity at 1 to 8 times MIC measured after 6 hrs by Alamar blue assay; assay type: functional, organism-based
Staphylococcus aureus [40] = test: Disruption of membrane integrity in Staphylococcus aureus assessed as increase in protein leakage by measuring increase in absorbance 1 to 8 times MIC measured for 6 hrs by Bradford assay; assay type: functional, organism-based
Staphylococcus aureus [41] = test: Bactericidal activity against Staphylococcus aureus assessed as reduction in number of colonies at 0.5 to 2 times MIC measured within 6 hrs by time-kill assay; assay type: functional, organism-based
Staphylococcus aureus [42] = test: Antibacterial activity against Staphylococcus aureus measured after 16 passages by resistance development assay; assay type: functional, organism-based
Staphylococcus aureus [43] = test: Antibacterial activity against Staphylococcus aureus assessed as reduction in LDH activity at 1 to 8 times MIC measured after 6 hrs by microplate reader method; assay type: functional; set-up: scale not given: the % may be the effect or the level left

Compound | MIC (Klebsiella pneumoniae) [µg/mL] | MIC (Acinetobacter baumannii) [µg/mL] | MIC (Staphylococcus aureus [2]) [µg/mL] | MIC (Escherichia coli [3]) [µg/mL] | MIC (Staphylococcus aureus [4]) [µg/mL] | MIC (Pseudomonas aeruginosa [5]) [µg/mL] | MIC (Staphylococcus aureus [7]) [µg/mL] | MIC (Staphylococcus aureus [8]) [µg/mL] | MIC (Pseudomonas aeruginosa [9]) [µg/mL] | MIC (Escherichia coli [10]) [µg/mL] | MIC (Enterococcus faecalis) [µg/mL] | Activity (Pseudomonas aeruginosa [11]) | Activity (Pseudomonas aeruginosa [12]) | inhibition (Pseudomonas aeruginosa [13]) | Activity (Pseudomonas aeruginosa [14]) | Activity (Pseudomonas aeruginosa [15]) | Activity (Pseudomonas aeruginosa [16]) [%] | Activity (L929) | HC50 at 1 h [23] [µg/mL] | hemolysis at 1 h [26] [%] | further results
CCn1cc(C(=O)O)c(=O)c2cc(F)c(N3CCNCC3)cc21 [NORFLOXACIN] | 4 (≈ 12.5 µM) | 1 (≈ 3.13 µM) | 16 (≈ 50.1 µM) | 4 (≈ 12.5 µM) | 16 (≈ 50.1 µM) | 4 (≈ 12.5 µM) | 16 (≈ 50.1 µM) | 8 (≈ 25.1 µM) | 2 (≈ 6.26 µM) | 2 (≈ 6.26 µM) | 8 (≈ 25.1 µM) |  |  |  |  |  |  |  |  |  | fold change (FC) (Pseudomonas aeruginosa [1]): 128; fold change (FC) (Staphylococcus aureus [6]): 64
COc1ccc(/C=N/Nc2ccc3c4c(cccc24)C(=O)N(C(CO)CO)C3=O)cc1 | 32 (≈ 76.3 µM) | 64 (≈ 153 µM) | 64 (≈ 153 µM) | 64 (≈ 153 µM) | 128 (≈ 305 µM) | 0.5 (≈ 1.19 µM) | 64 (≈ 153 µM) | 32 (≈ 76.3 µM) | 2 (≈ 4.77 µM) | 16 (≈ 38.1 µM) | 64 (≈ 153 µM) | Active | Active | Active | Active | Active | 70 | Non-Toxic | > 1000 | < 5 | Activity (Pseudomonas aeruginosa [17]): Active; Activity (Pseudomonas aeruginosa [18]): Active; Activity (Pseudomonas aeruginosa [19]): Active; inhibition (Pseudomonas aeruginosa [20]): Active; selectivity ratio [21]: > 2000; Activity (Pseudomonas aeruginosa [22]): Active; Activity (Pseudomonas aeruginosa [24]): Active; Activity (Pseudomonas aeruginosa [25]): Active; Activity (Pseudomonas aeruginosa [27]): Active; Activity (Pseudomonas aeruginosa [28]): Active
CCOC(=O)Cn1cc(/C=N/Nc2ccc3c4c(cccc24)C(=O)N(C(CO)CO)C3=O)c2ccccc21 | 4 (≈ 7.77 µM) | 32 (≈ 62.2 µM) | 16 (≈ 31.1 µM) | 32 (≈ 62.2 µM) | 8 (≈ 15.5 µM) | 64 (≈ 124 µM) | 32 (≈ 62.2 µM) | 0.25 (≈ 0.486 µM) | 8 (≈ 15.5 µM) | 64 (≈ 124 µM) | 64 (≈ 124 µM) |  |  |  |  |  |  | Non-Toxic | > 1000 | < 5 | inhibition (Staphylococcus aureus [29]): Active; Activity (Staphylococcus aureus [30]): Active; Activity (Staphylococcus aureus [31]): Active; Activity (Staphylococcus aureus [32]): Active; Activity (Staphylococcus aureus [33]): Active; Activity (Staphylococcus aureus [34]): Active; inhibition (Staphylococcus aureus [35]): Active; selectivity ratio [36]: > 4000; Activity (Staphylococcus aureus [37]): Active; Activity (Staphylococcus aureus [38]): Active; Activity (Staphylococcus aureus [39]): Active; Activity (Staphylococcus aureus [40]): Active; Activity (Staphylococcus aureus [41]): Active; Activity (Staphylococcus aureus [42]): Active; Activity (Staphylococcus aureus [43]): 70%
O=C1c2cccc3c(N/N=C/c4ccc5ccccc5c4)ccc(c23)C(=O)N1C(CO)CO | 32 (≈ 72.8 µM) | 64 (≈ 146 µM) | 64 (≈ 146 µM) | 32 (≈ 72.8 µM) | 128 (≈ 291 µM) | 0.5 (≈ 1.14 µM) | 64 (≈ 146 µM) | 4 (≈ 9.1 µM) | 1 (≈ 2.28 µM) | 16 (≈ 36.4 µM) | 64 (≈ 146 µM) | Active | Active | Active | Active | Active | 70 | Non-Toxic | > 1000 | < 5 | Activity (Pseudomonas aeruginosa [17]): Active; Activity (Pseudomonas aeruginosa [18]): Active; Activity (Pseudomonas aeruginosa [19]): Active; inhibition (Pseudomonas aeruginosa [20]): Active; selectivity ratio [21]: > 2000; Activity (Pseudomonas aeruginosa [22]): Active; Activity (Pseudomonas aeruginosa [24]): Active; Activity (Pseudomonas aeruginosa [25]): Active; Activity (Pseudomonas aeruginosa [27]): Active; Activity (Pseudomonas aeruginosa [28]): Active
